The values that follow come from patent US20220177477A1 (Central China Normal University, priority 2019, published 2022).

One data set has as its target T1, TRKA (Homo sapiens, UniProt P04629).
T1 construct: purchased Carna Biosciences 08-186
Kind of data set: In vitro biochemical HTRF KinEASE kinase inhibition, TRKA. The following applies: wild-type kinase, final ATP 3.727 μmol/L; read-out: TRKA IC50. In general terms: TR-FRET usually uses a lanthanide donor and a delayed reading to cut background.

In the next data set the target is T2, TRKB (Homo sapiens, UniProt Q16620).
T2 construct: purchased Carna Biosciences 08-187
Put plainly: In vitro biochemical HTRF KinEASE kinase inhibition, TRKB. The following applies: wild-type kinase, final ATP 2.56 μmol/L. The method, then: The material and the method are as follows: wild-type kinases such as TRKA, TRKB and TRKC, and mutant kinases such as TRKA-G595R, TRKA-G667C, TRKA-F589L, TRKC-G623R and TRKC-G696A, and are derived from Carna Biosciences 08-186, 08-187, 08-197; HTRF KinEASE TKkit (Cisbio 62TKO PEC); 384 well plates (Greiner corporation); ATP (Life technologies PV 3227), MgCl2 (sigma); PHERAstar FS Multifunctional microplate reader (BMG Co.); low speed centrifuge (StaiteXiangyi corporation); incubator (Binder company).
Preparing a compound working solution: the dispensed compounds were removed from the freezer prior to testing and diluted to 100× concentration with pure DMSO; then the compound was diluted to the desired concentration of 4× with deionized water;
Preparation of 1.33× enzyme buffer (enzyme buffer): 5× enzyme buffer (from HTRF kit) was diluted to 1.33× with deionized water and the corresponding ingredients were added at a final concentration of 1.33×: 1.33 mmol/L Dithiothreitol (DTT), 1.33 mmol/L MnCl2, 6.65 mmol/L MgCl2 and 39.9 nmol/L SEB;
Preparation of a kinase working solution: TRKA, TRKB and TRKC were diluted with 1.33× enzyme buffer to the required concentrations of 2× of 0.404 ng/μL, 0.304 ng/μL and 0.236 ng/μL, respectively;
Preparing a substrate working solution: a mixture of TK Substrate Blr diluted to the desired final concentration of 4× (from HTRF kit) and ATP (10 mM) with 1.33× enzyme buffer; the final ATP concentrations for TRKA, TRKB, and TRKC were: 3.727 μmol/L, 2.56 μmol/L and 2.526 μmol/L. The TK Substrate-biotin (from HTRF KinEASE TKkit) final concentrations were all: 0.2 μmol/L.
Preparing a detection working solution: 16.67 μmol/L of Streptavidin-XL665 (Streptavidin-XL 665) were diluted to the desired final concentration of 4× with HTRF test buffer and then mixed with an equal volume of Antibody-europium Cryptate (Antibody-Cryptate) (both from HTRF kits).
An enzyme reaction step: add 4 μL of kinase working solution to each well of a low volume 384 microwell plate along with 4 μL of 1.33× enzyme buffer as a Negative control (Negative); add 2 μl of compound working solution to the wells, while adding 2 μl of […] aqueous solution as a zero compound concentration control (i.e., Positive control, Positive); incubating at 25° C. for 5 min; add 2 μL of substrate working solution to the wells to start the enzymatic reaction, shake the reaction for 30 min at 37° C.
HTRF reagent detection step: adding […] to the hole to terminate the reaction; reacting for 1 h at 25° C.;
Reading of HTRF signal: the PHERAstar FS reading is adopted to detect signals, and the corresponding setting of the instrument is as follows:
For the raw data read out per well, the ratio=665 nm/620 nm;
Calculation of inhibition rate:
Calculation of IC50 values: with the logarithm of the compound concentration as abscissa and the inhibition as ordinate, a non-linear curve was fitted in GraphPad Prism 5: log (inhibitor) vs. response—Variable slope, and calculating the concentration of the compound to be detected, namely IC50, when the enzyme activity inhibition rate is 50%.

For the next data set, the target named is T3, TRKC (Homo sapiens, UniProt Q16288).
T3 construct: purchased Carna Biosciences 08-197
Put plainly: In vitro biochemical HTRF KinEASE kinase inhibition, TRKC. The conditions noted are these: wild-type kinase, final ATP 2.526 μmol/L.

A further data set concerns the target T4, TRKA-G595R (Homo sapiens, UniProt P04629, G595R).
T4 construct: purchased Carna Biosciences
Kind of data set: TRK kinase mutant inhibition (HTRF), TRKA-G595R. The format is biochemical.

In another data set the target is T5, TRKA-G667C (Homo sapiens, UniProt P04629, G667C).
T5 construct: purchased Carna Biosciences
Put plainly: TRK kinase mutant inhibition (HTRF), TRKA-G667C. Format: biochemical.

The target of a further data set is T6, TRKA-F589L (Homo sapiens, UniProt P04629, F589L).
T6 construct: purchased Carna Biosciences
Put plainly: TRK kinase mutant inhibition (HTRF), TRKA-F589L. Format: biochemical.

The target in a further data set is T7, TRKC-G623R (Homo sapiens, UniProt Q16288, G623R).
T7 construct: purchased Carna Biosciences
Kind of data set: TRK kinase mutant inhibition (HTRF), TRKC-G623R. The format is biochemical.

The target of the next data set is T8, TRKC-G696A (Homo sapiens, UniProt Q16288, G696A).
T8 construct: purchased Carna Biosciences
Put plainly: TRK kinase mutant inhibition (HTRF), TRKC-G696A. Format: biochemical.

A short description of data set [1]: Drug metabolism study in rats, oral administration. The following applies: rat; for CL / Vz: oral 5 mg/kg; for AUC(0-t) / Cmax / MRT last / Tmax / bioavailability / half-life: plasma, po, 5 mg/kg.
Data set [2] in a line: Drug metabolism study in rats, intravenous administration. The conditions noted are these: rat, plasma, iv, 1 mg/kg.
For another data set, the system named is Human NSCLC H2228. Put plainly: Antitumor activity on nude mouse xenograft tumor model (Test Example 5). Format: in vivo, nude mice (BALB/c). The following applies: for Partially regression: D14, tumors regressed/animals per group. The method, then: The efficacy of the compounds of the invention was assessed by a standard murine model of transplanted tumors. Human NSCLC H2228 was cultured, collected, and inoculated subcutaneously to 5-6 weeks old female nude mice (BALB/c, Shanghai Ling Chang Biotech, Ltd.). When the tumor volume reached 100-150 mm3, the animals were randomly divided into a solvent control group (70% PEG-400 in water) and a compound group (6 animals per group).
Animals were subsequently gavaged with the compounds of the examples (corresponding doses, dissolved in 70% PEG-400 in water), starting anywhere from 0 to 13 days after tumor cell inoculation, and were performed once or twice daily in the experiment.
The experimental index is to examine the influence of the compound of the embodiment on the growth of the tumor, and the specific index is T/C % or tumor inhibition rate TGI (%).
Tumor diameters were measured twice weekly with a vernier caliper and tumor volume (V) was calculated as:
V=½×a×b^2 wherein a and b represent length and width, respectively.
T/C(%)=(T−T0)/(C−C0)×100 where T, C is the tumor volume at the end of the experiment; T0, C0 are tumor volumes at the beginning of the experiment.
Tumor inhibition rate (TGI) (%) 100−T/C (%).
When tumor regression occurred, Tumor inhibition rate (TGI) (%) 100−(T−T0)/T0×100
Partial tumor regression (PR) is defined if the tumor shrinks from the initial volume, i.e., T<T0 or C<C0; if the tumor completely disappears, it is defined as complete tumor regression (CR).
Comparison between the two groups of tumor volumes was tested using a two-tailed Student's t test, with P<0.05 defined as statistically significant differences.
BID below indicates twice daily dosing and QD indicates once daily dosing.

SMILES strings stand for the structures. A value given as a limit tells only on which side of the number the result lay.

What is called IC50 is the concentration that gives 50% inhibition. The term AUC(0-t) denotes exposure summed from dosing to a finite time, without extrapolation to infinity. Higher therefore signals more exposure. Broadly, the Cmax is the maximum level reached in the sampled fluid or tissue. What is called MRT last is a mean duration of stay, worked out from the concentration-time curve. As usually defined, the Tmax is the time at which the peak concentration occurs. As a reminder, the bioavailability is the share of a dose that reaches the circulation, judged against a reference dose that is usually intravenous. A low value points to little systemic uptake. As a reminder, the half-life is how long it takes for the measured level to halve. A word on the Vd: it is a proportionality between amount in the body and measured concentration, not a real space. In general, clearance refers to the volume of plasma or blood freed of the substance per unit of time. High values mean efficient removal, low ones inefficient removal.

T7 sequence (Q16288 32-839 G623R): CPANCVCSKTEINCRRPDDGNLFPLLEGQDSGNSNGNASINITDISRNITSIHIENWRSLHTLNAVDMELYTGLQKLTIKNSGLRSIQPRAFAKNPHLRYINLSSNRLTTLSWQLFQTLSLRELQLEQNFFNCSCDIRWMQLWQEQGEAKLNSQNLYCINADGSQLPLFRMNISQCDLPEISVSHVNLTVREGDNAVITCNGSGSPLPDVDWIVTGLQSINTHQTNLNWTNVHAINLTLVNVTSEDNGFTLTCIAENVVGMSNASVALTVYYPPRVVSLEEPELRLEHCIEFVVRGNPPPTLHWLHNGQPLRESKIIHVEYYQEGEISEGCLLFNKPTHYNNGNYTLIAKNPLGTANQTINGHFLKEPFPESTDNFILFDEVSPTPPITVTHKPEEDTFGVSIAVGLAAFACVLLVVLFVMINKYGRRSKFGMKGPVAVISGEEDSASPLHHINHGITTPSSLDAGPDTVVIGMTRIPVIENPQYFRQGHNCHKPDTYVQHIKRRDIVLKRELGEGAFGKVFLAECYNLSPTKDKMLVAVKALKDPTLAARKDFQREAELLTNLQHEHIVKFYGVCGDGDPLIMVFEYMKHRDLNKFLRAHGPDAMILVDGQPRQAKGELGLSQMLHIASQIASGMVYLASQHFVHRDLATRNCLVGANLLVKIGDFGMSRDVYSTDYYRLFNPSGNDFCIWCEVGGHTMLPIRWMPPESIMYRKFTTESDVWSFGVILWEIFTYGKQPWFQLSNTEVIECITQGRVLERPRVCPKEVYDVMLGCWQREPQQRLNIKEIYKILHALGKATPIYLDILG
T5 sequence (P04629 33-796 G667C): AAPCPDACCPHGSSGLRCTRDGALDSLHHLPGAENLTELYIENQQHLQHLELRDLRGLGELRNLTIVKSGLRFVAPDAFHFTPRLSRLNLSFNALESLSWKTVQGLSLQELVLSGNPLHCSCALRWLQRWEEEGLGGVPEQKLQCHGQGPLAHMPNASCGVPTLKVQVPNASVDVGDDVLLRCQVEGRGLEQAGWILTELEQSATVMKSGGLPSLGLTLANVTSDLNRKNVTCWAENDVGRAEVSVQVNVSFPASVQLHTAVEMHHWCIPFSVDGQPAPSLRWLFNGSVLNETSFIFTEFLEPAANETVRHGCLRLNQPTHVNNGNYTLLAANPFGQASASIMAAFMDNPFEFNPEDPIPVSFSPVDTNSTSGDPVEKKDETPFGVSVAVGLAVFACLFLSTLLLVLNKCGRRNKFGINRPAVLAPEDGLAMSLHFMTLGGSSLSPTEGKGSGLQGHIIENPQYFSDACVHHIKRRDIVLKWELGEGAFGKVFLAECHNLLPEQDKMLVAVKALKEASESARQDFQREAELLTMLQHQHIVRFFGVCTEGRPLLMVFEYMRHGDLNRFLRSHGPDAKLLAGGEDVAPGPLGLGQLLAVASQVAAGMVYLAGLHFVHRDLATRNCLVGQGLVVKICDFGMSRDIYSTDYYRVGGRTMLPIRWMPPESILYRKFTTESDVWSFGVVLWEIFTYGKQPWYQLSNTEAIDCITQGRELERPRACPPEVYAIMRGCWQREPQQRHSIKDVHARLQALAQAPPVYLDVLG
T6 sequence (P04629 33-796 F589L): as the sequence (P04629 33-796 G667C) above, with F557L, C635G counted along it
T8 sequence (Q16288 32-839 G696A): as the sequence (Q16288 32-839 G623R) above, with R592G, G665A counted along it
T4 sequence (P04629 33-796 G595R): as the sequence (P04629 33-796 G667C) above, with G563R, C635G counted along it
T2 sequence (Q16620 32-822): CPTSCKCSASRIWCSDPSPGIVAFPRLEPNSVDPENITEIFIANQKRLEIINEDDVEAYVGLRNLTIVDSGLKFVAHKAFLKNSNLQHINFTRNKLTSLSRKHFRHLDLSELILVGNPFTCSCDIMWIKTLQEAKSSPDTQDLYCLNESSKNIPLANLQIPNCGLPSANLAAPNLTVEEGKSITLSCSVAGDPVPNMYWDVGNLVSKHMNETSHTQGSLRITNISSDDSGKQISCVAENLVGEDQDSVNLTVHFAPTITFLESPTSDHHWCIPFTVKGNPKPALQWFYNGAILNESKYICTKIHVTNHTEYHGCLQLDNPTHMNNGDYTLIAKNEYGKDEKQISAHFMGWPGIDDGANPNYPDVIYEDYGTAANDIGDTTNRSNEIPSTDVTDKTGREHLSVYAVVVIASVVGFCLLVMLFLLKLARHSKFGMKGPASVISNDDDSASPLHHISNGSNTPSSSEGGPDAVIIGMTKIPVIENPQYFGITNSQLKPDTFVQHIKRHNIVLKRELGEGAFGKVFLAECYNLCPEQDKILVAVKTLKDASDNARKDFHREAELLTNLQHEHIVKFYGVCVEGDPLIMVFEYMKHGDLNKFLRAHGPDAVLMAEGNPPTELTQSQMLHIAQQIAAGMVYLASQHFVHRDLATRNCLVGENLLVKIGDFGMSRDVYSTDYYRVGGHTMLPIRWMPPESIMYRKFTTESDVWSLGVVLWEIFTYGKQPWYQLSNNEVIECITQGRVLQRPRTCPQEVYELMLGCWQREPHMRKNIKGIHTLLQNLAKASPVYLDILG
T3 sequence (Q16288 32-825 isoform Q16288-3 limits assumed): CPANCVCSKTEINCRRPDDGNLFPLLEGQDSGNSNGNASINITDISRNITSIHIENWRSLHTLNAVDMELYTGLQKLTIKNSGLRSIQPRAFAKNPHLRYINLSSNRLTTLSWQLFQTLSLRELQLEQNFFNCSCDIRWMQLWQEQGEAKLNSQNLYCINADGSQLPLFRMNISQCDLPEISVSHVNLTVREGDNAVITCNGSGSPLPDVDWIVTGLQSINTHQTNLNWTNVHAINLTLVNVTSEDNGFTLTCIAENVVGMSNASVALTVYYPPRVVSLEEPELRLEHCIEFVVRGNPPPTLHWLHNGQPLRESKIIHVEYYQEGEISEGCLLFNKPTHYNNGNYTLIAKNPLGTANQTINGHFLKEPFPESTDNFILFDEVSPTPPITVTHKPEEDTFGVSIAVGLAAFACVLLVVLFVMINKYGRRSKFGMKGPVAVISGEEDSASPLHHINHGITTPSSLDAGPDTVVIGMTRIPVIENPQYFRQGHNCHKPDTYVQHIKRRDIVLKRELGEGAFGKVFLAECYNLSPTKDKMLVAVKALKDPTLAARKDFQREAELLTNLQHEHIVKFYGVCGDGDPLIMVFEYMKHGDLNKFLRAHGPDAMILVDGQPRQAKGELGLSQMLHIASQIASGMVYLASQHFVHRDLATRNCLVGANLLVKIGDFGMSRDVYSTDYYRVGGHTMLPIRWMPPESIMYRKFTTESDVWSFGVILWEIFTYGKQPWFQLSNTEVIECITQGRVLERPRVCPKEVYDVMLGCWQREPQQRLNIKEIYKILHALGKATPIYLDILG
T1 sequence (P04629 33-796): as the sequence (P04629 33-796 G667C) above, with C635G counted along it

On to `C[C@@H](Nc1ccn2ncc(-c3cn[nH]c3)c2n1)c1cc(F)ccc1OCC(F)F` [Compound 1, (R)-N-(1-(2-(2,2-difluoroethoxy)-5-fluorophenyl)ethyl)-3-(1H-pyrazol-4-yl) pyrazolo [1,5-a] pyrimidin-5-amine], for which the IC50 on TRKA turned out to be 1.9 nM. The midpoint of inhibition on TRKB, the IC50, lay at 1.9 nM. Besides, the IC50 against TRKC was determined as 3.1 nM. In addition, the IC50 against TRKA-G595R worked out at 0.84 nM. At TRKA-G667C, this compound displayed an IC50 of 1.76 nM. The same compound yielded an IC50 at TRKA-F589L of 0.22 nM. Further, the IC50 on TRKC-G623R was determined as 0.45 nM. On TRKC-G696A, the IC50 was determined as 0.76 nM. In data set [1], the CL turned out to be 126 mL/min/kg, the Vz worked out at 48.49 L/kg, the area under the curve AUC(0-t) was 650 ng·h/mL and the Cmax was 109 ng/mL. Further, in data set [1], the MRT last came to 5.69 h, the Tmax turned out to be 0.83 h, the bioavailability turned out to be 29.9% and the half-life is 4.44 h. In [2], this compound returned an AUC(0-t) of 434 ng·h/mL, a Cmax of 260 ng/mL, an MRT last of 3.62 h and a Vd of 16.9 L/kg. In data set [2], this compound gave a clearance of 38.5 mL/min/kg and a half-life of 5.1 h.

For the compound `C[C@@H](Nc1ccn2ncc(-c3cnn(CCO)c3)c2n1)c1cc(F)ccc1OCC(F)(F)F` [Compound a24-32, (R)-2-(4-(5-((1-(5-fluoro-2-(2,2,2-trifluoroethoxy)phenyl)ethyl)amino)pyrazolo [1,5-a]pyrimidin-3-yl)-1H-pyrazol-1-yl) ethanol], the IC50 at TRKA came out at 3.1 nM. The same compound registered an IC50 against TRKB of 1.4 nM. The IC50 against TRKC was found to be 2.9 nM. At TRKA-G595R, this compound returned an IC50 of 0.94 nM. The compound also registered an IC50 on TRKA-G667C of 1.39 nM. Besides, the IC50 on TRKA-F589L amounted to 0.44 nM. The IC50 at TRKC-G623R turned out to be 1.1 nM. At TRKC-G696A, it took 0.75 nM to reach half-maximal inhibition (IC50). Further, in data set [1], the CL came to 105 mL/min/kg, the Vz is on record as 28.2 L/kg, the AUC(0-t) was found to be 816 ng·h/mL and the highest level (Cmax) was 195 ng/mL. For the same compound, in data set [1], the MRT last was 3.8 h, the Tmax is 0.5 h, the bioavailability was determined as 47.6% and the half-life is 3.2 h. In data set [2], the AUC(0-t) stood at 343 ng·h/mL, the highest level (Cmax) was 155 ng/mL, the MRT last amounted to 4.29 h and the Vd came out at 22.8 L/kg. In data set [2], this compound gave a clearance of 47.7 mL/min/kg and a half-life of 5.51 h.

For `C[C@@H](Nc1ccn2ncc(-c3cn[nH]c3)c2n1)c1cc(F)ccc1OCC(F)(F)F` [Compound b8-30, (R)-N-(1-(5-fluoro-2-(2,2,2-trifluoroethoxy)phenyl)ethyl)-3-(1H-pyrazol-4-yl) pyrazolo [1,5-a] pyrimidin-5-amine], the IC50 on TRKA was found to be 2.8 nM; on TRKB, 3.2 nM; on TRKC it was 3.9 nM; at TRKA-G595R, 0.75 nM; against TRKA-G667C, 0.76 nM; on TRKA-F589L, 0.44 nM. The values for the IC50 on TRKC-G623R and against TRKC-G696A were 0.73 nM and 1.3 nM, respectively. Further, the Partially regression was 6/6 in the data set on Human NSCLC H2228 (25 mg/kg BID D0-13 (50 mg/kg from D8)) and 3/6 in the data set on Human NSCLC H2228 (50 mg/kg QD D0-10 (100 mg/kg from D8)). Further, the “Tumor growth inhibition value/ D14” value in the data set with Human NSCLC H2228 (25 mg/kg BID D0-13 (dose increased from D8 to 50 mg/kg), read at D14) was 127%; in the data set with Human NSCLC H2228 (25 mg/kg BID D0-13 (dose increased from D8 to 50 mg/kg), read at D14, listed as compound b8-30) it was 127%; with Human NSCLC H2228 (50 mg/kg QD D0-10 (dose raised from D8 to 100 mg/kg), read at D14), 110%; with Human NSCLC H2228 (50 mg/kg QD D0-10 (dose raised from D8 to 100 mg/kg), read at D14, listed as compound b8-30), 110%. For the same compound, the “tumor inhibition rate D7” value in the data set on Human NSCLC H2228 (25 mg/kg BID, read at D7) is reported as 95%. In the data set with Human NSCLC H2228 (50 mg/kg QD, read at D7), the “tumor suppression D7” value was found to be 96%. Moreover, in [1], the CL worked out at 57.7 mL/min/kg. Moreover, the Vz in data set [1] is recorded as 19.23 L/kg. The results for the AUC(0-t) in data set [1] and in data set [2] were 1460 ng·h/mL and 518 ng·h/mL, respectively. In addition, the figures for the Cmax in [1] and in [2] were 283 ng/mL and 174 ng/mL, respectively. The figures for the MRT last in data set [1] and in [2] were 4.27 h and 4.2 h, respectively. Also, the Tmax in [1] turned out to be 2 h. The bioavailability in [1] stood at 56.2%. The half-life was 4 h in data set [1] and 4.95 h in data set [2]. In data set [2], the Vd was determined as 12.7 L/kg. In addition, in [2], the clearance was 30.3 mL/min/kg.

For the compound `CC(Nc1ccn2ncc(-c3cn[nH]c3)c2n1)c1ccc(OCC(F)F)c(F)c1` (stereo not shown) [Control Compound D, reference compound], the 50% inhibitory concentration (IC50) at TRKA, against TRKB, against TRKC, against TRKA-G595R, at TRKA-G667C and on TRKA-F589L was > 1000 nM throughout. Moreover, the IC50 at TRKC-G623R and against TRKC-G696A was > 1000 nM throughout.
